Data taken from ChEMBL document CHEMBL1201862, “PubChem BioAssay data set” (2004).
Activity calls are given as the source filed them.

Key:
Assay type in all cases: functional
[1] = intracellular Trypanosoma cruzi inhibitors in host cells – cell-based, plate reader, cherry-pick samples, set 3, dose response (AID 651818);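 further: compounds incubated with infected cells for about four days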
[2] = biological target: T1, Corticotropin-releasing factor receptor 2/Corticotropin-releasing factor-binding protein (Homo sapiens, UniProt P24387+Q13324); assay: activators of CRF receptor 2 with binding protein – uHTS hits, confirmation (AID 602473); conditions: read-out: EC50_Mean
T1 sequence (Q13324 whole entry): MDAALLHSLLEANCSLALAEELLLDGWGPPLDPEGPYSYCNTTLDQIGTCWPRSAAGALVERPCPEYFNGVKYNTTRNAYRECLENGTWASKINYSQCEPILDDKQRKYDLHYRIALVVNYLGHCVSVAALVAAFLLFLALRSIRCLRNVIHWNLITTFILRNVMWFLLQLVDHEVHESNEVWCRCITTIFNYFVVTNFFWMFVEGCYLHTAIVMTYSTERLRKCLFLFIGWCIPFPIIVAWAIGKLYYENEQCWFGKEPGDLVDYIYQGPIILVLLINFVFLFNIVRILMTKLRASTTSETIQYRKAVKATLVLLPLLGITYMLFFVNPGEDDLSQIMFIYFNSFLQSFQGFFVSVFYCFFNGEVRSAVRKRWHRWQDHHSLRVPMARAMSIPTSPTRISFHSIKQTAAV
T1 sequence (P24387 whole entry): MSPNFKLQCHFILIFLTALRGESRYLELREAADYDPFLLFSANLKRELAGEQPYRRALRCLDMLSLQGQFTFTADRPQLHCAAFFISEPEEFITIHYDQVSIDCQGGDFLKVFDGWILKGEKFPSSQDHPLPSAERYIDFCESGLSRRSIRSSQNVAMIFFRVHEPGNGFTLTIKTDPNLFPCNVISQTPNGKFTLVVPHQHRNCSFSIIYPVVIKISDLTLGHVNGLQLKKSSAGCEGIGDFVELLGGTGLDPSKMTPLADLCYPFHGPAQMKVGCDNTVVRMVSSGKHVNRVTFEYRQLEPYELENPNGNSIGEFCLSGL

[3] = Luminescence Cell-Based Dose Response HTS to Identify Activators of Luciferase Translation or Activity in H4 […] Cells. [Related pubchem assays: 1829 (Project Summary), 1814 (Primary HTS)]
[4] = biological target: T1, Corticotropin-releasing factor receptor 2/Corticotropin-releasing factor-binding protein; assay: Dose Response confirmation of uHTS hits for small molecule antagonists of the CRF-binding protein and CRF-R2 receptor complex.; conditions: read-out: IC50_Mean
[5] = biological target: T2, Heat shock factor protein 1 (Mus musculus, UniProt P38532); assay: inhibition of MG132-induced HSE-luciferase signal, confirmation, cell-based, NIH3T3, luminescence, dose retest (AID 2382);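 further: NIH3T3 fibroblasts with HSF1-driven luciferase reporter stressed by proteasome inhibitor MG132; luminescence from HSF1-driven luciferase expression after 8 hours of MG132 stress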
T2 sequence (P38532 whole entry): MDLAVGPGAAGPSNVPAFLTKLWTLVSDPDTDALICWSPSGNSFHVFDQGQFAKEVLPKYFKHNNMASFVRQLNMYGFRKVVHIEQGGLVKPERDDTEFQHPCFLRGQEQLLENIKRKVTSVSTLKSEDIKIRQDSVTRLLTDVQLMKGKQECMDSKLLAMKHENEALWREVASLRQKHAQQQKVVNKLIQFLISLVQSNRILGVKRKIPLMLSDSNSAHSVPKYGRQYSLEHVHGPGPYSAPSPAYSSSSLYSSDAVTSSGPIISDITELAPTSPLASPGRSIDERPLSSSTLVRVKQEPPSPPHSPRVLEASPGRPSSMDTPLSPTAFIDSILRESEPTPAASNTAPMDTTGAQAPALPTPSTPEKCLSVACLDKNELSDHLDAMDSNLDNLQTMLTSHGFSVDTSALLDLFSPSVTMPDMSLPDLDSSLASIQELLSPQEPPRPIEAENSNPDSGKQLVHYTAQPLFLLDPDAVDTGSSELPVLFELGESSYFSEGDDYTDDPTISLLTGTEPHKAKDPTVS

[6] = system: H4; assay: Luminescence Cell-Based Dose Response HTS to Identify Activators of 5'UTR Stem-Loop Driven Prion Protein mRNA Translation in H4 Neuroglioblastoma Cells. [Related pubchem assays: 1829 (Project Summary), 1814 (Primary HTS)]; conditions: Homo sapiens
[7] = biological target: T3, Sentrin-specific protease 6 (Homo sapiens, UniProt Q9GZR1);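 further: Luminescence-based dose-response confirmatory assay of SENP6 inhibition, following up an ultra-high-throughput screen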
T3 sequence (Q9GZR1 whole entry): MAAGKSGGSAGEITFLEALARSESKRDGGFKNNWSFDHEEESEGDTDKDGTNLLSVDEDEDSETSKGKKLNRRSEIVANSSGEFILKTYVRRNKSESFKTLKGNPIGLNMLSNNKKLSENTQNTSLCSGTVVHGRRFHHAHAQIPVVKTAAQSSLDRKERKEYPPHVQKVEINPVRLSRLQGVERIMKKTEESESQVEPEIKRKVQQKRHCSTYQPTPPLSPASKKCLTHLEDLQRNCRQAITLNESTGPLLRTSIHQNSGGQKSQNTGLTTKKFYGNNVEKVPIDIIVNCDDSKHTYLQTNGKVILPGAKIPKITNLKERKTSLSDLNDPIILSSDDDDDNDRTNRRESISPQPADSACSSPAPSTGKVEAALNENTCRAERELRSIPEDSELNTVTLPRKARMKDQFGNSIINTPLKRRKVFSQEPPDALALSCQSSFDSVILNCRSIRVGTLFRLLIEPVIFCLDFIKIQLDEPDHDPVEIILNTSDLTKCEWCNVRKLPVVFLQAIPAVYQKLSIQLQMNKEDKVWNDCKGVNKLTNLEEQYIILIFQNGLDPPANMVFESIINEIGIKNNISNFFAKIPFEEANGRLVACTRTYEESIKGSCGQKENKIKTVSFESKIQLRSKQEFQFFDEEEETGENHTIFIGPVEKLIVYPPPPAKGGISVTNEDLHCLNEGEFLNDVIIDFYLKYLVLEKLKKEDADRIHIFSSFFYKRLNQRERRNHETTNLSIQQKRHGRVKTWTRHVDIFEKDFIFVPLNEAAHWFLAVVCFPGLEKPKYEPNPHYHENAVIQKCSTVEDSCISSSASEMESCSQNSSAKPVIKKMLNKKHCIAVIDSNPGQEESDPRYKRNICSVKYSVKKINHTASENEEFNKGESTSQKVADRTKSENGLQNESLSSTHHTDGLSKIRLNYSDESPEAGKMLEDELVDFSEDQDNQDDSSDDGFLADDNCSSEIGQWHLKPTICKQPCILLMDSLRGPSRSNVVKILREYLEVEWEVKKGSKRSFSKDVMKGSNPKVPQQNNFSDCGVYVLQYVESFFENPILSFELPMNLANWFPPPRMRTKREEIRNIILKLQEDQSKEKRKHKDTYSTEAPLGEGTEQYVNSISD

[8] = biological target: T4, Sentrin-specific protease 8 (Homo sapiens, UniProt Q96LD8);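 further: luminescence read-out of SENP8 inhibition, dose-response confirmation following an ultra-high-throughput screen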
T4 sequence (Q96LD8 whole entry): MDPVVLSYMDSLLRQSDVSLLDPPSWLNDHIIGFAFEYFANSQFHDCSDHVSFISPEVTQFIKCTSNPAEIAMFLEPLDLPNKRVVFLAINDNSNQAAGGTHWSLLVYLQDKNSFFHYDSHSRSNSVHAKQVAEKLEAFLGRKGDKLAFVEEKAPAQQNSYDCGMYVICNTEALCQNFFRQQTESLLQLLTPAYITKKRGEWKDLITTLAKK

[9] = biological target: T5, Caspase-3 (Homo sapiens, UniProt P42574);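 further: Dose-response selectivity test against caspase-3 for candidate inhibitors of sentrin-specific proteases (SENPs)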
T5 sequence (P42574 whole entry): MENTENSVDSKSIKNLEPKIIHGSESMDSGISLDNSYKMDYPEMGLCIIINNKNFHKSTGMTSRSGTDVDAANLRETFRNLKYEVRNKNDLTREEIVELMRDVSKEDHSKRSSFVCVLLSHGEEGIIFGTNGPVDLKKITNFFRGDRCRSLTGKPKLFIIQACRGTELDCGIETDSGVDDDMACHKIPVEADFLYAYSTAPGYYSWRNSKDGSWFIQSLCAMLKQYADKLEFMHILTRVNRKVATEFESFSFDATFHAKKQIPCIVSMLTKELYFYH

[10] = biological target: T6, Sentrin-specific protease 7 (Homo sapiens, UniProt Q9BQF6);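 further: Luminescence-based dose-response confirmation of ultra-high-throughput screening hits, measuring inhibition of SENP7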
T6 sequence (Q9BQF6 whole entry): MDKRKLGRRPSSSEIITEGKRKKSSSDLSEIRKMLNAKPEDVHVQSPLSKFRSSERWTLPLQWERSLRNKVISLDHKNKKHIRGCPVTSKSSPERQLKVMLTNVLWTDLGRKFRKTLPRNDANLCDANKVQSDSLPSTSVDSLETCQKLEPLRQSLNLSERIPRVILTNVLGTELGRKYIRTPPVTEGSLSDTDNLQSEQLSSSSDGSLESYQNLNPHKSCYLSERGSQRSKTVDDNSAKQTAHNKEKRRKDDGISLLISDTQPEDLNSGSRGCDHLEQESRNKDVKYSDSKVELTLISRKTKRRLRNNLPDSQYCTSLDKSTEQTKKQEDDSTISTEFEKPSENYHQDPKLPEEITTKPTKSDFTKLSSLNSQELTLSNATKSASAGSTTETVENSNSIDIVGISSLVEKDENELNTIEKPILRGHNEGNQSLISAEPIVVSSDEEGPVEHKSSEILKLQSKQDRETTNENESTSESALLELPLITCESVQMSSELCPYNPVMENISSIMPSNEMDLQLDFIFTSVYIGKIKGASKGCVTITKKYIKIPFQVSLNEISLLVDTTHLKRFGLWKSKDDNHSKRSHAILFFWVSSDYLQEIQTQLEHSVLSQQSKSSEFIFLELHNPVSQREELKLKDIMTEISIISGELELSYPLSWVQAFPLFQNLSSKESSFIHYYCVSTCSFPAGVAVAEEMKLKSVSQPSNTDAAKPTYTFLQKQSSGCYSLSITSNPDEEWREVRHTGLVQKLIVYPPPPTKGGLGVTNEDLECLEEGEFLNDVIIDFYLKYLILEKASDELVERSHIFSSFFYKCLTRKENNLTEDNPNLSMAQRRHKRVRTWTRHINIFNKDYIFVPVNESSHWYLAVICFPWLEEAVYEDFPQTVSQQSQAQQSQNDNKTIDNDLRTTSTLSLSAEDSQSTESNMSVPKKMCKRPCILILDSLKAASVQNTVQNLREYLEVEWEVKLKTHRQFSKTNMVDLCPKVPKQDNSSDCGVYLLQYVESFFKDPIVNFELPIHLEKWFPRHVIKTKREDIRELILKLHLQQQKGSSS

[11] = system: Vero; assay: Vero cell cytotoxicity, cytotoxicity control for flavivirus capping enzyme inhibitors (AID 588742); conditions: Chlorocebus sabaeus
[12] = biological target: Genome polyprotein (dengue virus type 2, UniProt P29990); assay: Dengue-2 NS5 methyltransferase inhibitors, primary screen, biochemical, confirmation dose response (AID 588689)
Chain of Genome polyprotein (P29990 2492-3391 limits assumed): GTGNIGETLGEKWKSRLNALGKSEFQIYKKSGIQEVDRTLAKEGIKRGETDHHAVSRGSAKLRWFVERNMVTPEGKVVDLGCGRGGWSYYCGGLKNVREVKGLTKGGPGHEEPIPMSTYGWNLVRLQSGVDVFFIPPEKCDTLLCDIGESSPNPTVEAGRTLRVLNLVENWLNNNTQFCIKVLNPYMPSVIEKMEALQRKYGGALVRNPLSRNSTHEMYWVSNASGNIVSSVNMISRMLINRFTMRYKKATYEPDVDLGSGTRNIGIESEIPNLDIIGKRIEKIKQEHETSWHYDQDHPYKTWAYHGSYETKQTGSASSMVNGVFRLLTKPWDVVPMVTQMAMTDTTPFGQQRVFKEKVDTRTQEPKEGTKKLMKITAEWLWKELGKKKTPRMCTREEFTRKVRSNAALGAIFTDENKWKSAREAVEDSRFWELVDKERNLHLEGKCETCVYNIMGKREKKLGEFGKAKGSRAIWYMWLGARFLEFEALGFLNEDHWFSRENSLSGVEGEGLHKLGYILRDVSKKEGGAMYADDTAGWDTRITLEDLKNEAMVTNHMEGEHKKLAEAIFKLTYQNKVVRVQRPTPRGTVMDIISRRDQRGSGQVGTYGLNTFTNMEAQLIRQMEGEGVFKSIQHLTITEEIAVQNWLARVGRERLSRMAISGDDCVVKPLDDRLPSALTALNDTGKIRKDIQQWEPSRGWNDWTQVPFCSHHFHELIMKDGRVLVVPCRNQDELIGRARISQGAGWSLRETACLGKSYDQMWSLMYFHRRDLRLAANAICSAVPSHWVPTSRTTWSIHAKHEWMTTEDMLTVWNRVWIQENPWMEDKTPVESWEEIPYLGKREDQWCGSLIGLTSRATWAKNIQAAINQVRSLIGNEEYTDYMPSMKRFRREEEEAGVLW

[13] = biological target: T7, Protein skinhead-1 (Caenorhabditis elegans, UniProt P34707)
T7 sequence (P34707 whole entry): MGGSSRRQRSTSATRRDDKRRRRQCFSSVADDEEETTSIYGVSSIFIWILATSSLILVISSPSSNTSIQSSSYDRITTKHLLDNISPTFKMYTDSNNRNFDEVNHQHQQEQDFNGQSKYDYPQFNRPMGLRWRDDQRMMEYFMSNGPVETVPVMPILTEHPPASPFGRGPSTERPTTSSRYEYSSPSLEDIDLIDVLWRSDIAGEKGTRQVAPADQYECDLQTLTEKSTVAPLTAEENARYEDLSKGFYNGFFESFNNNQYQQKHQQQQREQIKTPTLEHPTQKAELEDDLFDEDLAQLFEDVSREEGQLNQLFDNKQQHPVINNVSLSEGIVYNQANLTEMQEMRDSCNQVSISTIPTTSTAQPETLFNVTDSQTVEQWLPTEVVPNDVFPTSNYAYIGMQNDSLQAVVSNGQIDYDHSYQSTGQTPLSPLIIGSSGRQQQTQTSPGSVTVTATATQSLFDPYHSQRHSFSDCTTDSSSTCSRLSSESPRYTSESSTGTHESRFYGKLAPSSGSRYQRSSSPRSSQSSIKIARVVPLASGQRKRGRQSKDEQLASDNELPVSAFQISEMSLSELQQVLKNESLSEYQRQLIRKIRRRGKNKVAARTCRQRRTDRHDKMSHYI

For `C[C@@H]1CN([C@@H](C)CO)C(=O)c2cccc(NC(=O)Nc3ccccc3)c2O[C@H]1CN(C)Cc1ccc(Oc2ccccc2)cc1`, the AC50 [1] was 2.97 µM (active).
For `Cc1cc(O)c(C2=Nc3ccccc3SC(c3ccc(Cl)cc3)C2)c(=O)o1` (stereo not given), the EC50 [2] was > 53 µM (inactive), the EC50 [3] was 38.4 µM (active) and the IC50 [4] was > 47.1 µM (inactive). The EC50 [5] was 21 µM (active) and the EC50 [6] was 107 µM (inconclusive).
With `Cc1ccc(C(=O)Nc2ccccc2C(=O)NC2CCCCC2)cc1S(=O)(=O)N1CCOCC1` the EC50 [2] was > 53 µM (inactive) and the IC50 [4] was > 47.1 µM (inactive).
In the case of `Cc1ccc(C(=O)Nc2cccc3cccnc23)cc1C`, the IC50 [7] is reported as 14.5 µM (active), the IC50 [8] is reported as 18.8 µM (active) and the IC50 [9] is reported as 15.6 µM (active). The IC50 [10] was 3.98 µM (active).
With `Cc1cccc(C(=O)N2c3ccccc3C(=O)OC2c2ccc3c(c2)OCO3)c1` (stereo not given) the EC50 [2] was > 53 µM (inactive) and the IC50 [4] was < 0.368 µM (active).
For `N#CC(=C1C=C(Br)C(=NO)C=C1Cl)c1ccc(Cl)cc1`, the CC50 [11] was > 40 µM (active) and the IC50 [12] was 62.4 µM (active).
For `C[C@H](CO)N1C[C@H](C)[C@H](CN(C)Cc2ccc(C(=O)Nc3ccccc3N)cc2)Oc2ccc(NC(=O)Nc3ccc4c(c3)OCO4)cc2C1=O`, the AC50 [1] was 3.55 µM (active).
For `O=[N+]([O-])c1ccc(CSc2nc3ccccc3o2)cc1`, the IC50 [7] was 23.3 µM (active), the IC50 [8] was 16.2 µM (active) and the IC50 [9] was 25.6 µM (active). The IC50 [10] was 7.69 µM (active) and the IC50 [13] was > 100 µM (inactive).
With `C[C@@H]1CN([C@H](C)CO)C(=O)Cc2cc(NC(=O)Nc3ccc(C(F)(F)F)cc3)ccc2O[C@@H]1CN(C)Cc1ccc(Cl)c(Cl)c1` the AC50 [1] was 6.82 µM (active).
With `C[C@@H]1CCCCO[C@@H](CN(C)Cc2ccc(C(F)(F)F)cc2)[C@@H](C)CN([C@H](C)CO)C(=O)c2cc(NS(=O)(=O)c3ccc(F)cc3)ccc2O1` the AC50 [1] was 5.13 µM (active).
For `COc1ccc(C(=O)Nc2cccc(C(=O)O)c2)cc1S(=O)(=O)N1CCCC1`, the IC50 [7] was 22.1 µM (active), the IC50 [8] was 26.6 µM (active) and the IC50 [9] was 46.9 µM (active). For the same molecule, the IC50 [10] was 6.06 µM (active).
In the case of `COC(=O)C1=C(C)N=C(C)/C(=C(/O)OC)C1/C=C/c1ccccc1` (stereo not given), the EC50 [2] is reported as > 53 µM (inactive) and the IC50 [4] is reported as > 47.1 µM (inactive).
